This note sets out measurements from doi:10.1101/2025.04.25.650653, “Hierarchical small molecule inhibition of MYST acetyltransferases” (bioRxiv, 2025).

“And” between values parts separate entries of the source, which are not always exact repeats. Equal entries are not always repeated.

Assay [1] relates to H4K16Ac (KAT8). Description: MYST KAT biomarker western blot, BT-549. The settings on record: BT-549 cells, 24 h, near the GI50 dose. The class given is cell-based. (Immunoblotting shows a protein as a band on a membrane.)
For a further assay, the system named is NCI-60 cell line panel. Description: NCI-60 cell line screen, sulforhodamine B growth inhibition. The class given is cell-based, human. The settings on record: 48 h.
In assay [2] the test system is H4K16Ac (KAT8). The experiment in a line: Histone biomarker bottom-up LC-MS/MS, MCF-7. The class given is cell-based. The settings on record: for Ratio, H4_4_17 K16ac: Replicates 1-3.

Consider `COc1cccc(OC)c1S(=O)(=O)Nc1noc2cc(Cn3cccn3)cc(OC)c12` [PF-9363], for which the “inhibition of KAT8 (H4K16Ac)” value in the assay on H4K16Ac (KAT8) [1] is listed as “near complete inhibiton”. The 50% growth inhibitory concentration (GI50) (commonly the concentration at which growth is held to half of that of the control) in the assay with NCI-60 cell line panel (Homo sapiens, most cell lines of the NCI-60 panel, read-out: half-maximal growth inhibition (GI50)) lay within 10 to 100 µM. The “tolerance of concentrations expected to primarily effect KAT6 and KAT7” value with NCI-60 cell line panel (≤ 1 μM) was “generally well-tolerated”. Besides, the IC50 (as a rule, the concentration needed to halve the response being measured) in the assay on H4K16Ac (KAT8) [2] (Homo sapiens, MCF7, MCF-7 cells, 24 h) is around 10 µM. Moreover, the “Ratio, H4_4_17 K16ac” value in the assay with H4K16Ac (KAT8) [2] (KAT marker KAT8, PF-9363 0.1) was 0.3188 and 0.3244 and 0.3222; with H4K16Ac (KAT8) [2] (KAT marker KAT8, PF-9363 1), 0.2629 and 0.2802 and 0.2713; in the assay with H4K16Ac (KAT8) [2] (KAT marker KAT8, PF-9363 10), 0.1497 and 0 and 0.16; in the assay on H4K16Ac (KAT8) [2] (KAT marker KAT8, PF-9363 30) it was 0 (2×) and 0.08259. The “Average ratio, H4_4_17 K16ac” value in the assay on H4K16Ac (KAT8) [2] (KAT marker KAT8, PF-9363 (0.1 mM)) is 0.3218; in the assay with H4K16Ac (KAT8) [2] (KAT marker KAT8, PF-9363 (30 mM)) it was 0.0275. The “Fold-change 0.1 v 30, H4_4_17 K16ac” value in the assay on H4K16Ac (KAT8) [2] (KAT marker KAT8, average ratio 0.1 v 30) came out at 11.69.
